{
  "source": "patent US3995059A",
  "about": "“Pharmaceutical compositions containing fatty acid amide derivatives” (Sumitomo Chemical Company, Limited, priority 1966, dated 1976)",
  "key": {"[1]": {"test_system": "total cholesterol value in the blood serum", "assay": "Total cholesterol in blood serum of mice fed a diet enriched with cholesterol and bile acids (Table 1)", "assay_type": "in vivo", "settings": "0.2% in diet, oral, 8 to 12 days", "experimental": "The effectiveness of the compounds was tested by using mice fed on a specific diet which was enriched with cholesterol and bile acids. […] The amide compound as well was mixed with the specific diet in an amount of 0.2%, and continuously administered orally for 8 to 12 days. Then the total cholesterol value in the blood serum of the animals was evaluated."}, "[2]": {"test_system": "liver cholesterol", "assay": "Liver cholesterol (deposition of cholesterol and fat in the liver) of mice fed a cholesterol-rich diet (Table 1)", "assay_type": "in vivo", "settings": "0.2% in diet, oral, 8 to 12 days"}, "[3]": {"settings": "experiment [VIII], control 2652"}},
  "data": [
    {"smiles": "CCCCC/C=C\\C/C=C\\CCCCCCCC(=O)NC(C)c1ccc(Br)cc1", "note": "(stereo not shown)", "values": [
      {"measurement": "Serum cholesterol", "setting": "[1]; experiment [III], control 471", "result": 322, "unit": "mg %"},
      {"measurement": "Liver cholesterol", "setting": "[2]; experiment [III], control not given", "result": 1341, "unit": "mg/100 g."}
    ]},
    {"smiles": "CCC(NC(=O)CCCCCCCCCCCCCCC(C)C)c1ccc(C(C)(C)C)cc1", "note": "(stereo not shown)", "values": [
      {"measurement": "Serum cholesterol", "setting": "[1]; experiment [IV], control 595", "result": 297, "unit": "mg %"},
      {"measurement": "Liver cholesterol", "setting": "[2]; experiment [IV], control 3145", "result": 905, "unit": "mg/100 g."}
    ]},
    {"smiles": "CCCCC/C=C\\C/C=C\\CCCCCCCC(=O)NC(C)c1ccccc1[N+](=O)[O-]", "note": "(stereo not shown)", "values": [
      {"measurement": "Serum cholesterol", "setting": "[1]; experiment [VIII], control 472", "result": 299, "unit": "mg %"},
      {"measurement": "Liver cholesterol", "setting": "[2]; [3]", "result": 1003, "unit": "mg/100 g."}
    ]},
    {"smiles": "CCCCC/C=C\\C/C=C\\CCCCCCCC(=O)NC(C)c1cccc([N+](=O)[O-])c1", "note": "(stereo not shown)", "values": [
      {"measurement": "Serum cholesterol", "setting": "[1]; experiment [VIII], control 472", "result": 287, "unit": "mg %"},
      {"measurement": "Liver cholesterol", "setting": "[2]; [3]", "result": 992, "unit": "mg/100 g."}
    ]},
    {"smiles": "CCCCC/C=C\\C/C=C\\CCCCCCCC(=O)NC(CC)c1ccc([N+](=O)[O-])cc1", "note": "(stereo not shown)", "values": [
      {"measurement": "Serum cholesterol", "setting": "[1]; experiment [VIII], control 472", "result": 331, "unit": "mg %"},
      {"measurement": "Liver cholesterol", "setting": "[2]; [3]", "result": 980, "unit": "mg/100 g."}
    ]},
    {"smiles": "CC/C=C\\C/C=C\\C/C=C\\CCCCCCCC(=O)NC(CC)c1ccccc1[N+](=O)[O-]", "note": "(stereo not shown)", "values": [
      {"measurement": "Serum cholesterol", "setting": "[1]; experiment [VIII], control 472", "result": 300, "unit": "mg %"},
      {"measurement": "Liver cholesterol", "setting": "[2]; [3]", "result": 1091, "unit": "mg/100 g."}
    ]},
    {"smiles": "CCCCCCCC/C=C\\CCCCCCCC(=O)NC(C)c1ccccc1[N+](=O)[O-]", "note": "(stereo not shown)", "values": [
      {"measurement": "Serum cholesterol", "setting": "[1]; experiment [VIII], control 472", "result": 309, "unit": "mg %"},
      {"measurement": "Liver cholesterol", "setting": "[2]; [3]", "result": 1113, "unit": "mg/100 g."}
    ]},
    {"smiles": "CCCCCCCC/C=C\\CCCCCCCC(=O)NC12CC3CC(CC(C3)C1)C2", "values": [
      {"measurement": "Serum cholesterol", "setting": "[1]; experiment [IX], control 336", "result": 294, "unit": "mg %"},
      {"measurement": "Liver cholesterol", "setting": "[2]; experiment [IX], control 2200", "result": 1120, "unit": "mg/100 g."}
    ]},
    {"smiles": "CC/C=C\\C/C=C\\C/C=C\\CCCCCCCC(=O)NC12CC3CC(CC(C3)C1)C2", "values": [
      {"measurement": "Serum cholesterol", "setting": "[1]; experiment [IX], control 336", "result": 279, "unit": "mg %"},
      {"measurement": "Liver cholesterol", "setting": "[2]; experiment [IX], control 2200", "result": 750, "unit": "mg/100 g."}
    ]},
    {"smiles": "CCCCCCCC/C=C\\CCCCCCCC(=O)N(C1CCCCC1)C1CCCCC1", "values": [
      {"measurement": "Serum cholesterol", "setting": "[1]; experiment [XI], control 595", "result": 309, "unit": "mg %"},
      {"measurement": "Liver cholesterol", "setting": "[2]; experiment [XI], control 3451", "result": 929, "unit": "mg/100 g."}
    ]},
    {"smiles": "CCCCCCCC/C=C\\CCCCCCCC(=O)NC(C)c1ccc(CC)cc1", "note": "(racemic)", "values": [
      {"measurement": "Serum cholesterol", "setting": "[1]; experiment [X], control 554", "result": 304, "unit": "mg %"},
      {"measurement": "Liver cholesterol", "setting": "[2]; experiment [X], control 3293", "result": 1010, "unit": "mg/100 g."}
    ]},
    {"smiles": "CCCCCCCC/C=C\\CCCCCCCC(=O)NC(C)c1ccc(Br)cc1", "note": "(racemic)", "values": [
      {"measurement": "Serum cholesterol", "setting": "[1]; experiment [XI], control 595", "result": 299, "unit": "mg %"},
      {"measurement": "Liver cholesterol", "setting": "[2]; experiment [XI], control 3451", "result": 1039, "unit": "mg/100 g."}
    ]},
    {"smiles": "CCCCCCCC/C=C\\CCCCCCCC(=O)NC(CC)c1cccc([N+](=O)[O-])c1", "note": "(racemic)", "values": [
      {"measurement": "Serum cholesterol", "setting": "[1]; experiment [XI], control 595", "result": 362, "unit": "mg %"},
      {"measurement": "Liver cholesterol", "setting": "[2]; experiment [XI], control 3451", "result": 1342, "unit": "mg/100 g."}
    ]},
    {"smiles": "CCCCCCCC/C=C\\CCCCCCCC(=O)NC(C)c1ccc(OC)cc1", "note": "(racemic)", "values": [
      {"measurement": "Serum cholesterol", "setting": "[1]; experiment [XI], control 595", "result": 382, "unit": "mg %"},
      {"measurement": "Liver cholesterol", "setting": "[2]; experiment [XI], control 3451", "result": 1210, "unit": "mg/100 g."}
    ]},
    {"smiles": "CC/C=C\\C/C=C\\C/C=C\\CCCCCCCC(=O)NC(C)c1cccc(Cl)c1", "note": "(racemic)", "values": [
      {"measurement": "Serum cholesterol", "setting": "[1]; experiment [XI], control 595", "result": 309, "unit": "mg %"},
      {"measurement": "Liver cholesterol", "setting": "[2]; experiment [XI], control 3451", "result": 1125, "unit": "mg/100 g."}
    ]},
    {"smiles": "CC/C=C\\C/C=C\\C/C=C\\CCCCCCCC(=O)NC(CC)c1ccc(OC)cc1", "note": "(racemic)", "values": [
      {"measurement": "Serum cholesterol", "setting": "[1]; experiment [XI], control 595", "result": 325, "unit": "mg %"},
      {"measurement": "Liver cholesterol", "setting": "[2]; experiment [XI], control 3451", "result": 1450, "unit": "mg/100 g."}
    ]},
    {"smiles": "CC(C)CCCCCCCCCCCCCCC(=O)NC(C)c1ccccc1", "note": "(single isomer, unassigned; (+)) [(+) N-(α-Methylbenzyl)-isostearamide]", "values": [
      {"measurement": "Serum cholesterol", "setting": "[1]; experiment [I], control 546", "result": 251, "unit": "mg %"},
      {"measurement": "Liver cholesterol", "setting": "[2]; experiment [I], control 3585", "result": 761, "unit": "mg/100 g."}
    ]},
    {"smiles": "CCCCC/C=C\\C/C=C\\CCCCCCCC(=O)NC(C)c1ccccc1", "note": "(single isomer, unassigned; (+)) [(+) N-(α-Methylbenzyl)-linoleamide]", "values": [
      {"measurement": "Serum cholesterol", "setting": "[1]; experiment [I], control 546", "result": 267, "unit": "mg %"},
      {"measurement": "Liver cholesterol", "setting": "[2]; experiment [I], control 3585", "result": 764, "unit": "mg/100 g."}
    ]},
    {"smiles": "CC/C=C\\C/C=C\\C/C=C\\CCCCCCCC(=O)NC(C)c1ccccc1", "note": "(single isomer, unassigned; (+)) [(+) N-(α-Methylbenzyl)-linolenamide]", "values": [
      {"measurement": "Serum cholesterol", "setting": "[1]; experiment [I], control 546", "result": 269, "unit": "mg %"},
      {"measurement": "Liver cholesterol", "setting": "[2]; experiment [I], control 3585", "result": 784, "unit": "mg/100 g."}
    ]},
    {"smiles": "CCCCCCCC/C=C\\CCCCCCCC(=O)NC(C)c1ccccc1", "note": "(single isomer, unassigned; (+)) [(+) N-(α-Methylbenzyl)-oleamide]", "values": [
      {"measurement": "Serum cholesterol", "setting": "[1]; experiment [I], control 546", "result": 288, "unit": "mg %"},
      {"measurement": "Liver cholesterol", "setting": "[2]; experiment [I], control 3585", "result": 797, "unit": "mg/100 g."}
    ]},
    {"smiles": "CCCCC/C=C\\C/C=C\\CCCCCCCC(=O)NC(CC)c1ccccc1", "note": "(single isomer, unassigned; (-)) [(-) (α-Ethylbenzyl)-linoleamide]", "values": [
      {"measurement": "Serum cholesterol", "setting": "[1]; experiment [II], control 521", "result": 251, "unit": "mg %"},
      {"measurement": "Liver cholesterol", "setting": "[2]; experiment [II], control 3308", "result": 821, "unit": "mg/100 g."}
    ]},
    {"smiles": "CC(C)CCCCCCCCCCCCCCC(=O)NC(C)c1ccccc1", "note": "(single isomer, unassigned; (-)) [(-) (α-Methylbenzyl)-isostearamide]", "values": [
      {"measurement": "Serum cholesterol", "setting": "[1]; experiment [II], control 521", "result": 246, "unit": "mg %"},
      {"measurement": "Liver cholesterol", "setting": "[2]; experiment [II], control 3308", "result": 777, "unit": "mg/100 g."}
    ]},
    {"smiles": "CCCCC/C=C\\C/C=C\\CCCCCCCC(=O)NC(C)c1ccccc1", "note": "(single isomer, unassigned; (-)) [(-) (α-Methylbenzyl)-linoleamide]", "values": [
      {"measurement": "Serum cholesterol", "setting": "[1]; experiment [II], control 521", "result": 286, "unit": "mg %"},
      {"measurement": "Liver cholesterol", "setting": "[2]; experiment [II], control 3308", "result": 908, "unit": "mg/100 g."}
    ]}
  ]
}
